Measured values: patent publication US10822349B2, “Macrocyclic purines for the treatment of viral infections” (JANSSEN SCIENCES IRELAND UNLIMITED COMPANY, priority 2012, dated 2020)

How the values were obtained:
Assay type in all cases: cell-based
human TLR7 = molecular target: T1, human TLR7 (Homo sapiens, UniProt Q9NYK1); assay: TLR7 cellular reporter assay (HEK293 TLR7-NFκB-luc); settings: lowest effective concentration; HEK293 transiently transfected with TLR7 and NFκB-luc; 6 hours incubation
T1 construct: expressed in transfected cells; host or cells: HEK293
T1 sequence (Q9NYK1 27-1049): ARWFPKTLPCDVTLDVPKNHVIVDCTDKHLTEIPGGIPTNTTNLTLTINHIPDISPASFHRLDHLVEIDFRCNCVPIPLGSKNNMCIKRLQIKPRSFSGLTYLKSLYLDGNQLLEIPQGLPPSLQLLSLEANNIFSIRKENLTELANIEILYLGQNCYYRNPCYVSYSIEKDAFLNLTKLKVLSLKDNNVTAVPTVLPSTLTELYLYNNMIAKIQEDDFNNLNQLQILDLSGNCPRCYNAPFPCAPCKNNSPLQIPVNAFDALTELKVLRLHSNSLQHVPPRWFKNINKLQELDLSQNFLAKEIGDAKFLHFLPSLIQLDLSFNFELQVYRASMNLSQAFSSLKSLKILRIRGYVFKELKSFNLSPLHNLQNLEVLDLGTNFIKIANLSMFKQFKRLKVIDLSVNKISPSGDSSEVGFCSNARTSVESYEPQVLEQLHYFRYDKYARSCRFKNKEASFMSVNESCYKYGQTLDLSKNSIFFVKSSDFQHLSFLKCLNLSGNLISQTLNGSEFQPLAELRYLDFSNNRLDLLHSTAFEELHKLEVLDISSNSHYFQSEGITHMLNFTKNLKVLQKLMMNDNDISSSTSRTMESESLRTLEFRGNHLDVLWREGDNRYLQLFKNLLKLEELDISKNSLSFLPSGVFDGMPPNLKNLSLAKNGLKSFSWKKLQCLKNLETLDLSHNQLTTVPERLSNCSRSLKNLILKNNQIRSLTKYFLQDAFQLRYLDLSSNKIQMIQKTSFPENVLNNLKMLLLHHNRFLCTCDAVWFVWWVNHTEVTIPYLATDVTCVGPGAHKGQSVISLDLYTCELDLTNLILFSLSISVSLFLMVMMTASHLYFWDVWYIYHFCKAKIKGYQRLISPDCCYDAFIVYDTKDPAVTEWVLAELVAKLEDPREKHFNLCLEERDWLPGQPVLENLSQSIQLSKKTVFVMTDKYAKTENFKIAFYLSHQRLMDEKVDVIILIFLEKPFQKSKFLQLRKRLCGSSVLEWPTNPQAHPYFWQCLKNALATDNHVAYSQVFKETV
Summary of the method: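 HEK293 cells transiently co-transfected with CMV-TLR7 or TLR8 plasmid plus NFκB-luciferase reporter, 48 h post-transfection, then exposed to compound (added in 4% DMSO) for 6 h at 37 °C. Luciferase read-out; quadruplicate dose-response, LEC defined as concentration giving effect at least two-fold above assay SD.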

human TLR8 = molecular target: T2, human TLR8 (Homo sapiens, UniProt Q9NR97); assay: TLR8 cellular reporter assay (HEK293 TLR8-NFκB-luc); settings: lowest effective concentration; HEK293 transiently transfected with TLR8 and NFκB-luc; 6 hours incubation
T2 construct: expressed in transfected cells; host or cells: HEK293
T2 sequence (Q9NR97 27-1041): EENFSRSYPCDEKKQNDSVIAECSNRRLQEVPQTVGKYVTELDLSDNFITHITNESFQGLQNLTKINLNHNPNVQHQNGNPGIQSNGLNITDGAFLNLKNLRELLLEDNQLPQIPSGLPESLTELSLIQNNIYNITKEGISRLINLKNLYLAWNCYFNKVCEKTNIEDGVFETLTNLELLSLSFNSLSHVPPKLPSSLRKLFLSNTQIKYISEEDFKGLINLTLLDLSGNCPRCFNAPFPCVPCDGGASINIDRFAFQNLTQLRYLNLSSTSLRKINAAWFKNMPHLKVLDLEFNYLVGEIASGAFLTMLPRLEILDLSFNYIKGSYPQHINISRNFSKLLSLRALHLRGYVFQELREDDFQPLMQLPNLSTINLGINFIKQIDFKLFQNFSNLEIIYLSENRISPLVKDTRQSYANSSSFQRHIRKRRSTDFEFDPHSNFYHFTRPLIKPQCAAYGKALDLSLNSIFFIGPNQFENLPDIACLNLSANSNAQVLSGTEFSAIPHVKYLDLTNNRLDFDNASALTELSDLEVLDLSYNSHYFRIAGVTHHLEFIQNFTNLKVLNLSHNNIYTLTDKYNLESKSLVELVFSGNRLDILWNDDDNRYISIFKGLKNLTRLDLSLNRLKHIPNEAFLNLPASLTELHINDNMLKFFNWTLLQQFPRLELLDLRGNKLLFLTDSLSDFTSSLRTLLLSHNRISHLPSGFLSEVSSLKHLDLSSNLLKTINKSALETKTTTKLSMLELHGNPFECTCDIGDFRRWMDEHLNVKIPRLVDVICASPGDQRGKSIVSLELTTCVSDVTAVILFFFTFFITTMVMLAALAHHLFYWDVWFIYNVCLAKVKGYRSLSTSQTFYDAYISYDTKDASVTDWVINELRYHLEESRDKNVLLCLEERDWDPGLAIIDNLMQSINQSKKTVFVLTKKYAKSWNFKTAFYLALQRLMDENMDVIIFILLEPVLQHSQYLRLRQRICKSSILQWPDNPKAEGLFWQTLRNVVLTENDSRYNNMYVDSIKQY
Description: The ability of compounds to activate human TLR7 and TLR8 was assessed in a cellular reporter assay using HEK293 cells transiently transfected with a TLR7 or TLR8 expression vector and NFκB-luc reporter construct. Briefly, HEK293 cells were grown in culture medium (DMEM supplemented with 10% FCS and 2 mM Glutamine). For transfection of cells in 10 cm dishes, cells were detached with Trypsin-EDTA, transfected with a mix of CMV-TLR7 or TLR8 plasmid (750 ng), NFκB-luc plasmid (375 ng) and a transfection reagent and incubated 48 hours at 37° C. in a humidified 5% CO2 atmosphere. Transfected cells were then detached with Trypsin-EDTA, washed in PBS and resuspended in medium to a density of 1.67×10^5 cells/mL. Thirty microliters of cells were then dispensed into each well in 384-well plates, where 10 μL of compound in 4% DMSO was already present. Following 6 hours incubation at 37° C., 5% CO2, the luciferase activity was determined by adding 15 μl of Steady Lite Plus substrate (Perkin Elmer) to each well and readout performed on a ViewLux ultraHTS microplate imager (Perkin Elmer). Dose response curves were generated from measurements performed in quadruplicates. Lowest effective concentrations (LEC) values, defined as the concentration that induces an effect which is at least two fold above the standard deviation of the assay, were determined for each compound.

[1] = system: interferon production in human PBMC; assay: Interferon production in human PBMC, read out on HEK-ISRE-luc reporter cells; settings: Homo sapiens, PBMC, 24 h, lowest effective concentration, PBMC supernatant after overnight incubation transferred to HEK-ISRE-luc cells, read-out: PBMC HEK-ISRE-luc (LEC; μM)
Summary of the method: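 Human PBMCs from at least two donors (2×10^5/well, RPMI with 10% human AB serum) incubated overnight with compounds; conditioned supernatant transferred onto HEK-ISRE-luc reporter cells for 24 h. Luciferase read-out reported as LEC, with recombinant interferon alfa-2a as standard.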

Row | SMILES | HEK293 TLR7-NFκB-luc (LEC; μM) (human TLR7) | LEC on HEK293 TLR8-NFκB-luc (human TLR8) | minimal effective concentration [1]
1 | Nc1nc2nc3c1nc(O)n3Cc1ncccc1OCC/C=C/CO2 [Compound 40] | 1.3 µM | > 19.49 µM | 0.15 µM
2 | COc1cc2cc(c1)OC/C=C/COc1nc(N)c3nc(O)n(c3n1)C2 [Compound 75] | 0.0068 µM | 0.27 µM | 0.0026 µM
3 | Nc1nc2nc3c1nc(O)n3Cc1ncccc1/C=C\CCCO2 [Compound 41] | 1.93 µM | 11.16 µM | 0.48 µM
4 | Nc1nc2nc3c1nc(O)n3Cc1ccccc1C/C=C/CCO2 [Compound 47] | 3.43 µM | 5.48 µM | 2.34 µM
5 | Nc1nc2nc3c1nc(O)n3Cc1ncccc1OCC/C=C\CO2 [Compound 39] | 1.16 µM | 20.46 µM | 0.22 µM
